Data as given in paper PMC11288129, “Diversely evolved xibalbin variants from remipede venom inhibit potassium channels and activate PKA-II and Erk1/2 signaling” (BMC Biology, 2024).
Positions of bridges follow the written chain, without caps; N, C: chain ends. No end group written: not given here.

Test system: rat DRG sensory neurons
Test: Number of DRG neurons (cytotoxicity, high content imaging)
Type: cell-based
Settings: also RAW264.7 and HMEC
Experimental: We initially determined the cytotoxic effects of xibalbins on primary sensory neurons from adult male rats cultured in vitro [2]. […] We exposed overnight cultures of dissociated rat dorsal root ganglions (DRGs) to xibalbins for 5 and 30 min. Subsequently, all cells were fixed and immunocytochemically stained for the neuronal marker UCHL1 to identify neurons. The entire culture was digitally scanned using high content imaging (HCI) microscopy, and cell numbers, UCHL1 staining per cell, and cell size was analyzed. No loss of neurons was induced by either of the tested xibalbins, even at the highest concentration of 0.8 µg/µL (Additional File 3: Figure S2). […] We further investigated the potential toxicity of xibalbins in monocyte/macrophage-like cells (RAW264.7) and human microvascular endothelial cells (HMEC); see Additional File 5: Figure S4 The viability of RAW264.7 cells was detected using a formazan-based assay, while the proliferation of HMECs was assessed by measuring the number of crystal violet-stained cells.
Male Sprague Dawley rats (250–400 g, 8–16 weeks old) were obtained from Envigo. […]
Stained cells were scanned with a CX7-LZR (Thermo Fisher Scientific) HCI system. Images were acquired with a 10 × objective and analyzed using the cellomics software package (Thermo Fisher Scientific). […] The resulting objects were quantified for average object intensity in all other color channels. […]

“RLFCIRHHKYCGHRPKRCCSGLFCRCNTFGTNCRCQSKGALGKLI (disulfide 4-19, 11-24, 18-35, 26-33) [xib1]” was tested, and the “cytolytic or cytotoxic activity” value was “do not show overt cytolytic or cytotoxic activity”.

With “KRSCIRRFGRCDHRPNDCCYNSSCRCNLWGSNCRCQRMGLFQKWGK (disulfide 4-19, 11-24, 18-35, 26-33) [xib13]” the “cytolytic or cytotoxic activity” value was “do not show overt cytolytic or cytotoxic activity”.
